Tests used:
T. equi = experiment: Growth inhibitory fluorescence assay in vitro, T. equi; format: cell-based, Theileria equi
Procedure: (§1) Texas strain of B. bovis and Argentina strain of B. bigemina were grown using bovine red blood cells (RBCs, collected from cattle farm of Obihiro University of Agriculture and Veterinary Medicine and stored at 4°C) in medium 199 (M199; Sigma-Aldrich, Tokyo, Japan) supplemented with 40% bovine serum, while RPMI 1640 medium (Sigma-Aldrich, Tokyo, Japan) was used for B. divergens (German strain) cultivation. The United States Department of Agriculture (USDA) strain of T. equi was grown in equine RBCs (collected from horse farm of Obihiro University of Agriculture and Veterinary Medicine and stored at 4°C) in M199 supplemented with 40% equine serum, and hypoxanthine (MP Biomedicals, Santa Ana, CA, USA) at a final concentration of 13.6 μg/ml was used as a vital supplement, while GIT medium was used for B. caballi (USDA strain) cultivation. Sixty μg/ml of streptomycin, 0.15 μg/ml of amphotericin B, and 60 U/ml of penicillin G (Sigma-Aldrich, Tokyo, Japan) were added to all media to prevent fungal and bacterial contamination. All parasite cultures were maintained for a long time in a microaerophilic stationary-phase culture system.
(§2) The inhibition assay was conducted according to the previously described protocol. Briefly, different concentrations of CRY, DA, CF, and AQ were added in triplicate in 96-well plates with 1% parasitemia and 2.5% HCT for B. bovis and B. bigemina and 5% HCT for B. divergens, B. caballi, and T. equi. The plates were incubated in a humidified incubator with 5% CO2, 5% O2, and 90% N2 for 96 h without changing the media. After 96 h, 100 μl of lysis buffer containing 2 × SG1 was directly added to each well and the plates were then wrapped in aluminum foil for protection from direct light and incubated for 6 h at room temperature. Afterward, the fluorescence was measured using a fluorescence spectrophotometer (Fluoroskan Ascent, Thermo Fisher Scientific, USA) at 485 nm excitation and 518 nm emission wavelengths. The relative fluorescence value was set to percentages after subtracting the mean values of the negative control. The experiment was repeated thrice.
(§3) The IC50 values of CRY, DA, CF, and AQ were determined using the nonlinear regression curve fit in GraphPad Prism (GraphPad Software Inc., San Diego, CA, USA). Combination index (CI) values for the drug combination were calculated using CompuSyn software, and the degree of synergism was determined as the weighted average of CI values using a formula [(1 x IC50) + (2 x IC75) + (3 x IC90) + (4 x IC95)]/10 [30]. The differences in parasitemia and hematology profiles in the B. microti–infected mice were analyzed using an independent Student’s t-test and one-way ANOVA test using GraphPad Prism version 5.0 for Windows (GraphPad Software Inc., San Diego, CA, USA). A P-value < 0.05 was considered statistically significant.

[1] = test system: human foreskin fibroblast (HFF) cell line; experiment: cells; format: cell-based; details: for EC50: cell viability, HFF, 24 h, CCK-8
Procedure: (§4) Madin–Darby bovine kidney (MDBK) (ECACC), mouse embryonic fibroblast (NIH/3T3 ATCC CRL-1658) and Human foreskin fibroblast (HFF HFF-1 ATCC SCRC-1041) cell lines were recovered from -80°C stock and cultured continuously in our laboratory at 37°C in a humidified incubator with 5% CO2. In 75 cm^2 culture flasks, NIH/3T3 and HFF cell lines were maintained with Dulbecco’s Modified Eagle’s Medium (DMEM; Gibco, Grand Island, NY, USA), while the MDBK cell line was maintained with Minimum Essential Medium Eagle (MEM; Gibco). Ten percent fetal bovine serum, 1% glutamine, and 0.5% penicillin/streptomycin (Gibco) were added to all media and the cells were stained with 4, 6-diamidino-2-phenylindole dihydrochloride (DAPI; Sigma-Aldrich, St. Louis, MO, USA) to ensure that they were free from mycoplasma contamination. Afterward, the cells were washing twice with Dulbecco’s phosphate-buffered saline and TrypLE Express (Gibco) was used for cell detachment from the culture flask. Finally, Neubauer improved C-Chip (NanoEntek Inc., Seoul, Korea) was used for counting the viable cells after staining with 0.4% trypan blue solution.
(§5) The cytotoxicity assay was performed in accordance with the previously described protocol. Briefly, the assay was carried out using 96-well plates at 37 °C in a humidified incubator with 5% CO2, 100 μl of cells at a density of 5 x 10^4 cells/ml was seeded per well and allowed to attach to the plate for 24 h. Ten microliters of twofold drug dilutions was added to each well to a final concentration of 0.781 to 100 μM in triplicate and incubated for another 24 h. Ten μl of Cell Counting Kits-8 (CCK-8; Dojindo, Japan) was added to each well and incubated for another 3 h, and the absorbance was measured at 450 nm using a microplate reader.

[2] = test system: Madin–Darby bovine kidney (MDBK) cell line; experiment: cells; format: cell-based; details: for EC50: MDBK, 24 h, cell viability, CCK-8
Procedure: as §4, §5

[3] = test system: mouse embryonic fibroblast (NIH/3T3) cell line; experiment: cells; format: cell-based; details: for EC50: cell viability, NIH/3T3, 24 h, CCK-8
Procedure: as §4, §5

B. caballi = experiment: Growth inhibitory fluorescence assay in vitro, B. caballi; format: cell-based, Babesia caballi
Procedure: as §1, §2, §3

B. bigemina = experiment: Growth inhibitory fluorescence assay in vitro, B. bigemina; format: cell-based, Babesia bigemina
Procedure: as §1, §2, §3

B. bovis = experiment: Growth inhibitory fluorescence assay in vitro, B. bovis; format: cell-based, Babesia bovis
Procedure: as §1, §2, §3

B. divergens = experiment: Growth inhibitory fluorescence assay in vitro, B. divergens; format: cell-based, Babesia divergens
Procedure: as §1, §2, §3

B. microti = experiment: Chemotherapeutic effect against B. microti in mice (parasitemia); format: in vivo, Babesia microti; details: BALB/c mice, 25 mg/kg DA i.p.
Procedure: Rodent B. microti (Munich strain) was recovered from -80°C stock and injected intraperitoneally (i.p.) in two 8-week-old female BALB/c mice purchased from CLEA Japan (Clea Japan, Tokyo, Japan). The mice were euthanized using an anesthesia system containing isoflurane after parasitemia reached approximately 30% and the blood was collected by cardiac puncture to conduct the in vivo studies.
(§6) The promising effect of CRY in vitro encouraged us to evaluate its in vivo effects against B. microti in mice. The assay was conducted in accordance with the previously described protocol. In two separate trials, 35 female 8-week-old BALB/c mice, housed under a pathogen-free environment with controlled humidity, temperature (22°C) and a 12 h light/ dark cycle were caged in seven groups, each group consisting of five mice. Six groups were i.p. injected with 0.5 ml of inoculum (1×10^7 B. microti iRBCs), while the seventh group was left uninfected and untreated to act as a negative control. When the average parasitemia in all infected mice reached approximately 1%, the 5-day drug treatment was initiated. The first and second groups were i.p. injected with 25 mg/kg body weight (BW) of DA and 5 mg/kg BW of CRY, respectively. The third group received 20 mg/kg BW of AQ orally, while the fourth and fifth groups were administered a combination of 2.5 mg/kg BW CRY + 12.5 mg/kg BW DA and 2.5 mg/kg BW CRY + 10 mg/kg AQ via a route similar to that of the single-drug treatment, respectively. The sixth group received 5% DMSO in physiological saline i.p. as a positive control. Parasitemia and hematology profiles (RBCs, hemoglobin (HGB), and HCT) were monitored every 2 and 4 days by microscopic examination and hematology analyzer (Celltac α MEK-6450, Nihon Kohden Corporation, Tokyo, Japan), respectively. On day 49, all mice were euthanized using an anesthesia system containing isoflurane and the blood was collected by cardiac puncture for PCR detection of the parasites.

[4] = test system: B. microti small-subunit rRNA (ss-rRNA) gene; experiment: Nested PCR detection of B. microti DNA in blood of treated mice; format: in vivo, Babesia microti; details: day 49, 25 mg/kg DA
Procedure: as §6
The nested PCR (nPCR) that targeted the B. microti small-subunit rRNA (ss-rRNA) gene was performed in accordance with the previously described protocol and the genomic DNA was extracted from blood samples collected from all mice groups on day 49 post-infection (p.i.) using a QIAamp DNA Blood Mini Kit (Qiagen, Tokyo, Japan). PCR cycling conditions were performed as previously described and the bands with an expected size of 154 bp were considered positive.

Structure (SMILES): CC(C)/N=c1\cc2n(-c3ccc(Cl)cc3)c3ccccc3nc-2cc1Nc1ccc(Cl)cc1 [CF, clofazimine]
- Selective index HFF (T. equi; EC50 HFF / IC50 T. equi): ˃ 34.7
- Selective index MDBK (T. equi; EC50 MDBK / IC50 T. equi): 12.1
- Selective index NIH/3T3 (T. equi; EC50 NIH/3T3 / IC50 T. equi): ˃ 34.7
- EC50 ([1]; Homo sapiens): > 100000 nM
- EC50 ([2]; Bos taurus): 34000 ± 3400 nM
- EC50 [2]: 34700 ± 3400 nM
- EC50 ([3]; Mus musculus, NIH3T3): > 100000 nM
- Selective index HFF (B. caballi; EC50 HFF / IC50 B. caballi): ˃ 12.6
- Selective index MDBK (B. caballi; EC50 MDBK / IC50 B. caballi): 4.4
- Selective index NIH/3T3 (B. caballi; EC50 NIH/3T3 / IC50 B. caballi): ˃ 12.6
- Selective index HFF (B. bigemina; EC50 HFF / IC50 B. bigemina): ˃ 17.5
- Selective index MDBK (B. bigemina; EC50 MDBK / IC50 B. bigemina): 6.1
- Selective index NIH/3T3 (B. bigemina; EC50 NIH/3T3 / IC50 B. bigemina): ˃ 17.5
- Selective index HFF (B. bovis; EC50 HFF / IC50 B. bovis): ˃ 12.1
- Selective index MDBK (B. bovis; EC50 MDBK / IC50 B. bovis): 4.2
- Selective index NIH/3T3 (B. bovis; EC50 NIH/3T3 / IC50 B. bovis): ˃ 12.1
- Selective index HFF (B. divergens; EC50 HFF / IC50 B. divergens): ˃ 7.2
- Selective index MDBK (B. divergens; EC50 MDBK / IC50 B. divergens): 2.5
- Selective index NIH/3T3 (B. divergens; EC50 NIH/3T3 / IC50 B. divergens): ˃ 7.2

Structure (SMILES): CC(=O)NCC(=O)O.CC(=O)NCC(=O)O.N=C(N)c1ccc(N=NNc2ccc(C(=N)N)cc2)cc1 [DA, diminazene aceturate]
- day p.i. on which parasitemia was undetectable by microscopy (B. microti): 16 days
- peak parasitemia level (B. microti; 5 days, day 10): 8.5%
- IC50 (T. equi; T. equi in vitro culture, fluorescence assay, 96 h): 710 ± 0.05 nM
- parasite DNA in blood (nPCR) [4]: not detected
- inhibition of cell line at 100 μM [1]: did not show any inhibition
- EC50 [1]: > 100000 nM
- inhibition of cell line at 100 μM [2]: did not show any inhibition
- EC50 [2]: > 100000 nM
- inhibition of cell line at 100 μM [3]: did not show any inhibition
- EC50 [3]: > 100000 nM
- IC50 (B. caballi; B. caballi in vitro culture, fluorescence assay, 96 h): 22 ± 0.0002 nM
- IC50 (B. bigemina; B. bigemina in vitro culture, fluorescence assay, 96 h): 680 ± 0.09 nM
- IC50 (B. bovis; B. bovis in vitro culture, fluorescence assay, 96 h): 350 ± 0.06 nM
- IC50 (B. divergens; B. divergens in vitro culture, fluorescence assay, 96 h, read-out: IC50): 430 ± 0.05 nM

— article PMC7451656, “In vitro and in vivo growth inhibitory activities of cryptolepine hydrate against several Babesia species and Theileria equi” (PLoS Neglected Tropical Diseases, 2020)
